The term Ki denotes a measure of affinity in units of concentration, obtained from inhibition or displacement. High values mean a looser hold on the target, low ones a stronger hold on the target. As a reminder, the melting point is the temperature, or range, at which the solid turns liquid.

Several values for one entry are separate records, joined by “and”; a condition that tells them apart may be missing. Equal entries are not always repeated.

Drawing on patent publication US6653300B2, “Pyrazole compounds useful as protein kinase inhibitors” (Vertex Pharmaceuticals Incorporated, priority 2000, dated 2003), this text covers Ki and melting point for 24 compounds.

One data set concerns the target T1, GSK-3β (AA 1-420) (Homo sapiens, UniProt P49841).
T1 construct: GSK-3β (AA 1-420)
Briefly: Ki determination for the inhibition of GSK-3 (coupled enzyme system). It is filed as biochemical. The conditions noted are these: 20 μM ATP, 20 nM GSK-3β, 30° C. The essentials:
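GSK-3β (AA 1-420, 20 nM) was run in a pyruvate kinase/LDH-coupled NADH assay in 100 mM HEPES pH 7.5, 10 mM MgCl2, 25 mM NaCl, 1 mM DTT, 1.5% DMSO, with 300 μM phosphopeptide substrate. Compound (0.002–30 μM) was preincubated 10 min at 30° C, then 20 μM ATP was added.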

The next data set addresses T2, Aurora-2 (Homo sapiens, UniProt O14965).
T2 sequence (O14965 1-403): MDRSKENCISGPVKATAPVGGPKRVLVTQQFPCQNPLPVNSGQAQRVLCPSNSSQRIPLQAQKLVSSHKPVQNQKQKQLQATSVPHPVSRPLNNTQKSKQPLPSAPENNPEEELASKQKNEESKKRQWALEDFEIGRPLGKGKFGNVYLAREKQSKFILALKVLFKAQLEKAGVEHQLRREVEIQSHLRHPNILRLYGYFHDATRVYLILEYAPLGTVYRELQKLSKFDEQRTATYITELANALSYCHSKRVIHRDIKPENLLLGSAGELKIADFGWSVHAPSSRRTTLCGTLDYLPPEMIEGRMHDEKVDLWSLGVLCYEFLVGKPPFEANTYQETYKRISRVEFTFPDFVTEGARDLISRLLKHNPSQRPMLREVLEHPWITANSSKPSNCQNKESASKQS
In words: Ki determination for the inhibition of Aurora-2 (coupled enzyme assay). The class given is biochemical. The conditions noted are these: 70 nM Aurora-2, 30° C. Here is the method:
Compounds were screened in the following manner for their ability to inhibit Aurora-2 using a standard coupled enzyme assay (Fox et al (1998) Protein Sci 7, 2249).
To an assay stock buffer solution containing 0.1M HEPES 7.5, 10 mM MgCl2, 1 mM DTT, 25 mM NaCl, 2.5 mM phosphoenolpyruvate, […], 30 mg/ml pyruvate kinase, 10 mg/ml lactate dehydrogenase, […], and 800 μM peptide (LRRASLG, American Peptide, Sunnyvale, Calif.) was added a DMSO solution of a compound of the present invention to a final concentration of 30 μM. The resulting mixture was incubated at 30° C. for 10 min. The reaction was initiated by the addition of 10 μL of Aurora-2 stock solution to give a final concentration of 70 nM in the assay. The rates of reaction were obtained by monitoring absorbance at 340 nm over a 5 minute read time at 30° C. using a BioRad Ultramark plate reader (Hercules, Calif.). The Ki values were determined from the rate data as a function of inhibitor concentration.

T1 sequence (P49841 whole entry, the tested form may be a part): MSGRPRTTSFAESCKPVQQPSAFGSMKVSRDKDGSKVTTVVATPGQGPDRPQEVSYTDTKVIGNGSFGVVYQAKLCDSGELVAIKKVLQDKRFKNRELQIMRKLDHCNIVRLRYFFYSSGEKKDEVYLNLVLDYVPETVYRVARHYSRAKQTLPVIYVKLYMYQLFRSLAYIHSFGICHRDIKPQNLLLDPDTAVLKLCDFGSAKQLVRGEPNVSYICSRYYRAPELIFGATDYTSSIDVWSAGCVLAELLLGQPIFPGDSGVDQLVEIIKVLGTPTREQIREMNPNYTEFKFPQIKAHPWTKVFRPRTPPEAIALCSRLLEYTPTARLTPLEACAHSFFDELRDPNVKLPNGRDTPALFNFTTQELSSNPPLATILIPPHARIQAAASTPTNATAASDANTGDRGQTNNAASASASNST

Regarding `CS(=O)(=O)Nc1ccc(Sc2nc(Nc3cc(C4CC4)[nH]n3)c3ccccc3n2)cc1` [IIa-61, (5-Cycloprpyl-2H-pyrazol-3-yl)-[2-(4-methylsulfonylamino-phenylsulfanyl)-quinazolin-4-yl]-amine], the melting point lay within 235 to 238 °C. In addition, at GSK-3β (AA 1-420), the inhibition constant (Ki) was < 100 nM. In addition, the Ki on Aurora-2 is < 100 nM.
On to `Cc1cc(Nc2nc(Sc3ccc(N)cc3)nc3ccccc23)n[nH]1` [IIa-62, [2-(4-Amino-phenylsulfanyl)-quinazolin-4-yl]-(5-methyl-2H-pyrazol-3-yl)-amine], for which the melting point was > 300 °C. This compound had a Ki on GSK-3β (AA 1-420) of 100 to 1000 nM. Besides, the Ki on Aurora-2 is < 100 nM.
With `Cc1cc(Nc2nc(Sc3ccc(NC(=O)CCCN4CCOCC4)cc3)nc3ccccc23)n[nH]1` [IIa-64, (5-Methyl-2H-pyrazol-3-yl)-{2-[4-(4-morpholin-4-yl-butyrylamino)-phenylsulfanyl]-quinazolin-4-yl}-amine], the melting point lay in the range of 240 to 243 °C. The compound further yielded a Ki on GSK-3β (AA 1-420) of 1000 to 7000 nM. At Aurora-2, the Ki is < 100 nM.
Take `COc1cccc2c(Nc3cc(C)[nH]n3)nc(Sc3ccc(NS(C)(=O)=O)cc3)nc12` [IIa-66, [8-Methoxy-2-(4-methylsulfonylamino-phenylsulfanyl)-quinazolin-4-yl]-(5-methyl-2H-pyrazol-3-yl)-amine]: the melting point is 275 to 277 °C. The same compound showed a Ki on GSK-3β (AA 1-420) of 100 to 1000 nM. In addition, the Ki at Aurora-2 is < 100 nM.
For `Cc1cc(Nc2nc(Sc3ccc(C(=O)NCCN(C)C)cc3)nc3ccccc23)n[nH]1` [IIa-67, {2-[4-(2-Dimethylamino-ethylcarbamoyl)-phenylsulfanyl]-quinazolin-4-yl}-(5-methyl-2H-pyrazol-3-yl)-amine], in that order: 192 to 193 °C, 1000 to 7000 nM and 100 to 1000 nM.
For `Cc1cc(Nc2nc(Sc3ccc(NS(C)(=O)=O)cc3)nc3c(O)cccc23)n[nH]1` [IIa-69, [8-Hydroxy-2-(4-methylsulfonylamino-phenylsulfanyl)-quinazolin-4-yl]-(5-methyl-2H-pyrazol-3-yl)-amine], in that order: 291 to 293 °C, 100 to 1000 nM and < 100 nM.
In turn, `COc1cccc2c(Nc3cc(C4CC4)[nH]n3)nc(Sc3ccc(NC(C)=O)cc3)nc12` [IIa-72, [2-(4-Acetamido-phenylsulfanyl)-8-methoxy-quinazolin-4-yl]-(5-cyclopropyl-2H-pyrazol-3-yl)-amine] displayed a melting point of 265 to 268 °C. At GSK-3β (AA 1-420), this compound came in with a Ki of 1000 to 7000 nM. The Ki at Aurora-2 is < 100 nM.
`Cc1cc(Nc2nc(Sc3ccc(NC(=O)CN(C)C(=O)OC(C)(C)C)cc3)nc3ccccc23)n[nH]1` [IIa-76, (2-{4-[2-(tert-Butoxycarbonyl-methyl-amino)-acetylamino]-phenylsulfanyl}-quinazolin-4-yl)-(5-methyl-2H-pyrazol-3-yl)-amine]: the melting point was 228 to 229 °C (dec.). The Ki at GSK-3β (AA 1-420) lay within 1000 to 7000 nM. In addition, the Ki on Aurora-2 is < 100 nM.
`COc1ccc(Oc2nc(Nc3cc(C)[nH]n3)c3ccccc3n2)cc1OC` [IIb-7, [2-(3,4-Dimethoxyphenoxy)-quinazolin-4-yl]-(5-methyl-2N-pyrazol-3-yl)-amine]: the melting point fell in the range of 277 to 278 °C. Moreover, at GSK-3β (AA 1-420), the Ki was 100 to 1000 nM. Moreover, the Ki on Aurora-2 is < 100 nM.
Turning to `Cc1cc(Nc2nc(Oc3ccc4c(c3)OCO4)nc3ccccc23)n[nH]1` [IIb-8, [2-(Benzo[1,3]dioxol-5-yloxy)-quinazolin-4-yl]-(5-methyl-2H-pyrazol-3-yl)-amine], the melting point was 296 to 299 °C (dec.). Moreover, at GSK-3β (AA 1-420), the Ki is < 100 nM. Besides, the Ki at Aurora-2 is < 100 nM.
`Cc1cc(Nc2nc(NCc3ccccc3)nc3ccccc23)n[nH]1` [IIc-5, (2-Benzylamino-quinazolin-4-yl)-(5-methyl-2H-pyrazol-3-yl)-amine] gave a melting point of 225 to 227 °C. For the same compound, the Ki at GSK-3β (AA 1-420) was 100 to 1000 nM. In addition, at Aurora-2, the Ki is < 100 nM.
Regarding `Cc1cc(Nc2nc(NC3CCCCC3)nc3ccccc23)n[nH]1` [IIc-6, (2-Cyclohexylamino-quinazolin-4-yl)-(5-methyl-2H-pyrazol-3-yl)-amine], the melting point is 280 °C (dec.). For the same compound, on GSK-3β (AA 1-420), the Ki is < 100 nM and 100 to 1000 nM. Moreover, the Ki on Aurora-2 is < 100 nM.
As to `Cc1cc(Nc2nc(Nc3ccc4c(c3)OCCO4)nc3ccccc23)n[nH]1` [IIc-7, [2-(2,3-Dihydrobenzo[1,4]dioxin-6-ylamino)-quinazolin-4-yl]-(5-methyl-2H-pyrazol-3-yl)-amine], the melting point is > 250 °C. The compound further came in with a Ki on GSK-3β (AA 1-420) of 100 to 1000 nM. Besides, the Ki on Aurora-2 was < 100 nM.
As for `Cc1cc(Nc2nc(Nc3ccc(Cl)cc3)nc3ccccc23)n[nH]1` [IIc-12, [2-(4-Chlorophenylamino)-quinazolin-4-yl]-(5-methyl-2H-pyrazol-3-yl)-amine], the melting point is > 250 °C. In addition, the Ki on GSK-3β (AA 1-420) is < 100 nM. Also, the Ki at Aurora-2 is < 100 nM.
As for `Cc1cc(Nc2nc(Nc3ccccc3CCO)nc3ccccc23)n[nH]1` [IIc-14, {2-[2-(2-Hydroxyethyl)phenylamino]-quinazolin-4-yl}-(5-methyl-2H-pyrazol-3-yl)-amine], the melting point is 222 °C. Besides, the Ki on GSK-3β (AA 1-420) was in the range of 100 to 1000 nM. Also, at Aurora-2, the Ki lay within 100 to 1000 nM.
On to `Cc1cc(Nc2nc(Nc3cccc(CO)c3)nc3ccccc23)n[nH]1` [IIc-16, [2-(3-Hydroxymethylphenylamino)-quinazolin-4-yl]-(5-methyl-2H-pyrazol-3-yl)-amine], for which the melting point is > 250 °C. Further, the Ki on GSK-3β (AA 1-420) is 100 to 1000 nM. The Ki on Aurora-2 was < 100 nM.
For `Cc1cc(Nc2nc(Nc3cccc(O)c3)nc3ccccc23)n[nH]1` [IIc-17, [2-(3-Hydroxyphenylamino)-quinazolin-4-yl]-(5-methyl-2H-pyrazol-3-yl)-amine] the same measures were > 250 °C, 100 to 1000 nM and < 100 nM.
For `COc1ccc(Nc2nc(Nc3cc(C4CC4)[nH]n3)c3ccccc3n2)cn1` [IIc-20, (5-Cyclopropyl-2H-pyrazol-3-yl)-[2-(6-methoxypyridin-3-ylamino)-quinazolin-4-yl]-amine], in that order: 120 °C, < 100 nM and < 100 nM.
Turning to `CCCc1ccc(Nc2nc(Nc3cc(C4CC4)n[nH]3)c3ccccc3n2)cc1` [IIc-26, (5-Cyclopropyl-2H-pyrazol-3-yl)-[2-(4-propylphenylamino)-quinazolin-4-yl]-amine], the melting point was 255 to 256 °C. Further, at GSK-3β (AA 1-420), the Ki was 100 to 1000 nM. The Ki on Aurora-2 was < 100 nM.
As to `c1ccc2c(Nc3cc(C4CC4)[nH]n3)nc(NCCC3CCCCC3)nc2c1` [IIc-29, [2-(2-Cyclohexylethylamino)-quinazolin-4-yl]-(5-cyclopropyl-2H-pyrazol-3-yl)-amine], the melting point is > 250 °C. This compound showed an inhibition constant Ki at GSK-3β (AA 1-420) of 100 to 1000 nM. The Ki on Aurora-2 is < 100 nM.
`O=C(O)COc1ccc(Nc2nc(Nc3cc(C4CC4)[nH]n3)c3ccccc3n2)cc1` [IIc-30, [2-(4-Carboxymethoxyphenylamino)-quinazolin-4-yl]-(5-cyclopropyl-2H-pyrazol-3-yl)-amine]: the melting point is > 250 °C. The Ki at GSK-3β (AA 1-420) is < 100 nM. The Ki on Aurora-2 is < 100 nM.
`O=C(O)Cc1ccc(Nc2nc(Nc3cc(C4CC4)[nH]n3)c3ccccc3n2)cc1` [IIc-36, [2-(4-Carboxymethylphenylamino)-quinazolin-4-yl]-(5-cyclopropyl-2H-pyrazol-3-yl)-amine]: the melting point is > 210 °C (dec.). Also, at GSK-3β (AA 1-420), the Ki is < 100 nM. In addition, the Ki at Aurora-2 is < 100 nM.
Compound `O=C(O)c1cccc(Nc2nc(Nc3cc(C4CC4)[nH]n3)c3ccccc3n2)c1` [IIc-40, [2-(3-Carboxyphenylamino)-quinazolin-4-yl]-(5-cyclopropyl-2H-pyrazol-3-yl)-amine] yielded a melting point of 298 to 302 °C. The compound further returned a Ki on GSK-3β (AA 1-420) of 100 to 1000 nM. Besides, the Ki on Aurora-2 is < 100 nM.
Regarding `c1ccc(CCCNc2nc(Nc3cc(C4CC4)[nH]n3)c3ccccc3n2)cc1` [IIc-47, (5-Cyclopropyl-2H-pyrazol-3-yl)-[2-(3-phenylprop-1-ylamino)-quinazolin-4-yl]-amine], the melting point was 189 °C. The compound further had an inhibition constant Ki on GSK-3β (AA 1-420) of 100 to 1000 nM. On Aurora-2, the Ki is < 100 nM.
